Test results reported in BindingDB's records for doi:10.1021/jm00076a030 (Eli Lilly, 1994).
pKi: −log10 of the molar value.

Biological target: Leukotriene B4 receptor (Cavia porcellus)
Test: Tested for inhibition of specific binding of [3H]LTB4 to guinea pig lung membranes expressing LTB4 receptor

| SMILES | pKi |
| --- | --- |
| CCc1cc(-c2ccccc2)c(O)cc1OCCCOc1ccc2c(=O)c3cc(C(=O)O)ccc3oc2c1CCC(=O)O [5-(2-Carboxy-ethyl)-6-[3-(5-ethyl-2-hydroxy-biphenyl-4-yloxy)-propoxy]-9-oxo-9H-xanthene-2-carboxylic acid] | 9.96 |
| CCc1cc(-c2ccccc2)c(O)cc1OCCCOc1ccc2c(=O)c3ccccc3oc2c1CCC(=O)O [3-{3-[3-(5-Ethyl-2-hydroxy-biphenyl-4-yloxy)-propoxy]-9-oxo-9H-xanthen-4-yl}-propionic acid] | 7.92 |
